Test results as given in patent US9499534B2, “Thiazole-substituted aminopyrimidines as spleen tyrosine kinase inhibitors” (priority 2013, dated 2016).
pIC50: −log10 of the molar value.

Legend:
[1] = target: recombinant human GST-SYK (Homo sapiens (Human), UniProt P43405); assay: Homogeneous Time-Resolved Fluorescence (HTRF) Assay for the Recombinant Human Syk Enzyme; format: biochemical; conditions: GST-SYK 5 pM, ATP 25 μM, biotinylated substrate peptide 250 nM, HTRF signal
Experimental: Homogeneous Time-Resolved Fluorescence (HTRF) Assay for the Recombinant Human Syk Enzyme
A recombinant GST-hSYK fusion protein was used to measure potency of compounds to inhibit human Syk activity. The recombinant human GST-SYK (Carna Biosciences #08-176) (5 pM final concentration) was incubated with various concentrations of the inhibitor diluted in DMSO (0.1% final concentration) for 10 minutes at room temperature in 15 mM Tris-HCl (pH 7.5), 0.01% tween 20, 2 mM DTT in 384 well plate format. To initiate the reaction the biotinylated substrate peptide (250 nM final concentration) that contains the phosphorylation site for Syk was added with magnesium (5 mM final concentration) and ATP (25 μM final concentration). Final volume of the reaction was 10 μL. Phosphorylation of the peptide was allowed to proceed for 45′ at room temperature. To quench the reaction and detect the phosphorylated product, 2 nM of a Europium-anti-phosphotyrosine antibody (Perkin Elmer #AD0161) and 70 nM SA-APC (Perkin-Elmer #CR130-100) were added together in 15 mM Tris pH 7.5, 40 mM EDTA, 0.01% tween 20. Final volume of the quenching solution was 10 μL.
The resulting HTRF signal was measured after 30 minutes on an EnVision (Perkin-Elmer) reader using a time-resolved fluorescence protocol. Table A below lists activities as IC50 values (nM) for representative compounds of the invention.

[2] = tested on: PGD2; conditions: dosed intranasally, phase I/II study, allergic rhinitis; cited from earlier work
[3] = phase II clinical trial for allergic rhinitis; cited from earlier work

pIC50 [1] | SMILES | clinical safety [2] | decrease in PGD2 [2] | efficacy versus placebo [3]
8.07 | N#Cc1cc(Nc2nccc(C(F)(F)F)n2)cc(-c2cnc(C3(O)CCC(C(=O)O)CC3)s2)c1 (stereo not drawn) [Example 1.7, cis 4-[5-(3-cyano-5-{[4-(trifluoromethyl)pyrimidin-2-yl]amino}phenyl)-1,3-thiazol-2-yl]-4-hydroxycyclohexanecarboxylic acid] | – | – | –
– | Oc1cccc(Nc2ncc(F)c(Nc3cccc(O)c3)n2)c1 [Example R112] | safe across a range of indicators | statistically significant decrease | lack of efficacy versus placebo
